Experiment [1] deals with IgE antibodies from patients having allergies to each food. Description: Confirmation of epitope cross-reactivity by ELISA with biotinylated peptides. The format is binding, human. The text has this: Amino acids other than amino acids important for maintaining binding to IgE antibodies, in each of the epitope sequences found in the wheat proteins in Table 2 were defined as any given amino acid (X). NCBI was searched for proteins having the key sequences having the amino acid residues X in cooking ingredient allergens carried in common by each of the patients. As a result, an amino acid sequence contained in a sequence in each food described in the column “Food with which cross-reactivity was confirmed” in Table 2 was identified as one example.
The binding activity of peptides comprising the amino acid sequences described in the column “Synthesis sequence” and the rightmost column “SEQ ID NO” of Table 2 against IgE antibodies from patients having allergies to each food described in the column “Food with which cross-reactivity was confirmed” in Table 2 was confirmed by ELISA. The peptides were synthesized such that the peptides were N-terminally biotinylated by the Fmoc method.
To be specific, ELISA was carried out according to the following procedure. • (1) The concentrations of the biotinylated peptides were adjusted to 10 μg/mL with PBST (0.1% Tween 20). • (2) Each peptide solution was added at 20 μL to each well of a 384-well plate coated with streptavidin, and shaken at room temperature for one hour. After collection of the solution, the wells were washed with PBST five times. • (3) Pierce Protein-Free (PBS) Blocking Buffer (produced by Thermo) was added at 40 μL thereto and shaken at room temperature for one hour. After removal of the solution, the wells were washed with PBST five times. • (4) 2% serum/Canget SignalSolution I (produced by TOYOBO) was added at 20 μL thereto and shaken at room temperature for one hour. After removal of the solution, the wells were washed with PBST five times. • (5) A diluted secondary antibody solution (1:10000, Canget SignalSolution II (produced by TOYOBO)) was added at 20 μL thereto and shaken at room temperature for one hour. After removal of the solution, the wells were washed with PBST five times. • (6) 1-Step Ultra TMB-ELISA (produced by Thermo) was added at 20 μL thereto and shaken at room temperature for 15 minutes. • (7) 2 M H2SO4 was added at 20 μL thereto. Absorbance at 450 nm was measured.
Peptides having these amino acid sequences were prepared by the same procedure as described in Example 4 (A), and the presence or absence of binding thereto of IgE antibodies present in the serum of an allergic patient and the serum of a nonallergic subject was measured. The serum of two nonallergic subjects was measured, and values obtained by dividing the measurement values by an average value thereof were used.
The bar graph of each figure depicts “absorbance of the allergic patient/absorbance of the nonallergic patient (healthy subject)”. The names of the cooking ingredients described in each graph are the names of cooking ingredients containing a polypeptide comprising an amino acid sequence serving as the basis of each synthetic sequence used.
(In an ELISA, binding on a coated surface is turned into a signal by an enzyme label.)

The subject of experiment [2] is IgE antibody present in the serum of a wheat-allergic patient. Description: Wheat epitope mapping (1): peptide array of overlapping 15-amino-acid peptides, chemiluminescence. It is filed as binding, human. The note with it: bound = chemiluminescence value minus N2nd value of 5 non-wheat-allergic subjects at least 35,000; serum of 49 patients. The procedure: Epitope mapping was carried out using a library of overlapping peptides (length: 15 amino acids) corresponding to the amino acid sequences identified as allergy components of wheat. Specifically, the library of overlapping peptides was prepared on the basis of the amino acid sequences of SEQ ID NOs: 2, 4, 6, 8, 10, 12, 14, 16, 18, 20, 22, 24, 26 and 28.
The peptides to be synthesized were shifted by 10 amino acids.
For preparation of peptide arrays, the Intavis CelluSpots™ technique was used. Specifically, the peptide arrays were prepared by the following procedure: (1) synthesizing peptides of interest on amino-modified cellulose disks using an automated chemical synthesis apparatus (Intavis MultiPep RS), (2) dissolving the amino-modified cellulose disks to obtain a cellulose-bound peptide solution, and (3) spotting the cellulose-bound peptides onto coated glass slides. The details of each procedure are as described below.
Peptide synthesis was carried out in incremental steps through 9-fluorenylmethoxycarbonyl (Fmoc) chemical reaction on amino-modified cellulose disks in 384-well synthesis plates. Specifically, amino acids in which a Fmoc group is bonded to an amino group were activated in a solution of N,N′-diisopropylcarbodiimide (DIC) and 1-hydroxybenzotriazole (HOBt) in dimethylformamide (DMF) and added dropwise to the cellulose disks so that the Fmoc group-bound amino acids were bound to the amino groups on the cellulose disks (coupling). Unreacted amino groups were capped with acetic anhydride and washed with DMF. Furthermore, the Fmoc groups were eliminated from the amino groups of the amino acids bound to the amino groups on the cellulose disks by treatment with piperidine and washing with DMF. The amino acids bound to the amino groups on the cellulose disks were repetitively subjected to the coupling, the capping, and the Fmoc group elimination described above to elongate the amino terminus for peptide synthesis.
The peptides-bound cellulose disks of interest obtained above in the subsection titled “(1) Synthesis of peptide” were transferred to 96-well plates and treated with a side chain deprotection mixed solution of trifluoroacetic acid (TFA), dichloromethane, triisopropylsilane (TIPS), and water for deprotection of amino acid side chains. Then, the deprotected cellulose-bound peptides were dissolved in a mixed solution of TFA, […] acid (TFMSA), TIPS, and water and precipitated in […] methyl ether (TBME), and the precipitate was resuspended in dimethyl sulfoxide (DMSO) and mixed with a mixed solution of NaCl, sodium citrate, and water to obtain a peptide solution for slide spotting.
The peptide solution for slide spotting obtained above in the subsection titled “(2) Dissolution of amino-modified cellulose disk” was spotted onto Intavis CelluSpots™ slides using Intavis Slide Spotting Robot, and the slides were dried to prepare peptide arrays.
The presence or absence of binding, to each peptide fragment, of an IgE antibody present in the serum of a wheat-allergic patient was measured through antigen-antibody reaction using the peptide arrays. […]

From patent US20240393292A1, “ALLERGY ANTIGEN AND EPITOPE THEREOF” (HOYU CO., LTD., priority 2019, published 2024) come the findings set out here.

Consider “29 (QQILWYHQQQPIQQQ; REGION 1..15: note = epitope) [compound 29]”, for which the “Food in which cross-reactivity was confirmed” value (“Food” below) in experiment [1] (serum IgE of patient P7 (WDEIA), epitope E1, LMW-D8(LMW-GS) B2BZD1, Spot No. 9, key sequence XXXXXXXQXXXIQQX (SEQ ID NO 45), Graph No. 1) is reported as “Wheat”; in experiment [1] (serum IgE of patient P13 (WDEIA), epitope E1, LMW-D8(LMW-GS) B2BZD1, Spot No. 9, key sequence XXXXXYXQXXXIQQX (SEQ ID NO 62), Graph No. 1), “Wheat”; in experiment [1] (serum IgE of patient P36 (WDEIA), epitope E1, LMW-D8(LMW-GS) B2BZD1, Spot No. 9, key sequence XXXXXXXQXXXIQQX (SEQ ID NO 122), Graph No. 1), “Wheat”.
In the case of “2889 (ILFEETLYQS; REGION 1..10: note = epitope) [compound 2889]”, the “Food” value in experiment [1] (epitope E10 (Fructose-bisphosphate aldolase W5CCA9), listed under patient P8, Graph No. 3) was “Wheat/rye/barley”.
Take NEPSQLSLDQNAQGL: the “Food” value in experiment [1] (epitope E16 (Fructose-bisphosphate aldolase W5CCA9, Spot No. 4), patient P21, key sequence XXXXQXXXDQNXXXX (SEQ ID NO 1144), Graph No. 2) is given as “timothy”.
For GLFGTN (GIFGTN), the “Food” value in experiment [1] (synthetic sequence tested for IgE binding by ELISA, Graph No. 3, epitope row of patient P8) was “Wheat/barley/rye 3”.
Turning to “2881 (QEQQQYYPQQQAFFL; REGION 1..15: note = epitope) [compound 2881]”, the “Food” value is listed as “Orchard grass” in experiment [1] (serum IgE of patient P4 (WDEIA), epitope E3, LMW-D8(LMW-GS) B2BZD1, Spot No. 9, key sequence XXXQQXXPQQXXXXX (SEQ ID NO 203), Graph No. 1); “Orchard grass” in experiment [1] (serum IgE of patient P10 (WDEIA), epitope E3, LMW-D8(LMW-GS) B2BZD1, Spot No. 9, key sequence XXXQQXXPQQQXXXX (SEQ ID NO 220), Graph No. 1); “Orchard grass” in experiment [1] (serum IgE of patient P32 (WDEIA), epitope E3, LMW-D8(LMW-GS) B2BZD1, Spot No. 9, preferred sequence XXQQQXFPQQQXXXX (SEQ ID NO 268), Graph No. 1).
For “SEQ ID NO: 2027: common 15-residue epitope sequence of polypeptide (E34) (TPGALQYLSGVILFE; REGION 1..15: note = epitope)”, the “binding of patient-specific IgE antibodies to 15-residue peptide” value (from here on “binding”) in experiment [2] is “confirmed to bind”.
In the case of “SEQ ID NO: 346: common 15-residue epitope sequence of polypeptide (E5) (PQQSFPQQQRPFIQP; REGION 1..15: note = epitope)”, in experiment [2], the “binding” value is on record as “confirmed to bind”.
Still for that read-out and setting: under “SEQ ID NO: 1789: common 15-residue epitope sequence of polypeptide (E29) (SGKELEALPKFLKNG; REGION 1..15: note = epitope)” stands “confirmed to bind”.
On the same count and under the same terms, under “SEQ ID NO: 640: common 15-residue epitope sequence of polypeptide (E9) (QVPLVQQQQFPGQQQ; REGION 1..15: note = epitope)” stands “confirmed to bind”.
The same measure, in the same setting: under “SEQ ID NO: 706: common 15-residue epitope sequence of polypeptide (E10) (VILFEETLYQSTKGG; REGION 1..15: note = epitope)” stands “confirmed to bind”.
In the case of “SEQ ID NO: 2342: common 15-residue epitope sequence of polypeptide (E40) (HDIDRCAYVTEIVLA; REGION 1..15: note = epitope)”, the “binding” value in experiment [2] is reported as “confirmed to bind”.
Still for that read-out and setting: under “SEQ ID NO: 2491: common 15-residue epitope sequence of polypeptide (E42) (SSQVSFQPSQLNPQA; REGION 1..15: note = epitope)” stands “confirmed to bind”.
Still for that read-out and setting: under “SEQ ID NO: 1166: common 15-residue epitope sequence of polypeptide (E17) (PGQQQQFPPQQPYPQ; REGION 1..15: note = epitope)” stands “confirmed to bind”; under “SEQ ID NO: 2217: common 15-residue epitope sequence of polypeptide (E37) (VSRLLRGIRNYRVAI; REGION 1..15: note = epitope)”, “confirmed to bind”.
Same read-out and setting: with “SEQ ID NO: 2545: common 15-residue epitope sequence of polypeptide (E43) (LQQSTYQLVQQLCCQ; REGION 1..15: note = epitope)” the entry was “confirmed to bind”; with “SEQ ID NO: 2004: common 15-residue epitope sequence of polypeptide (E33) (STGTIGKRFASINVE; REGION 1..15: note = epitope)”, “confirmed to bind”.
With “SEQ ID NO: 493: common 15-residue epitope sequence of polypeptide (E7) (PQQPYPQQQPQYLQP; REGION 1..15: note = epitope)”, in experiment [2], the “binding” value is “confirmed to bind”.
Still for that read-out and setting: with “SEQ ID NO: 281: common 15-residue epitope sequence of polypeptide (E4) (QQPQQPFPQQQQPLI; REGION 1..15: note = epitope)” the entry was “confirmed to bind”; with “SEQ ID NO: 899: common 15-residue epitope sequence of polypeptide (E12) (LGQQQQQFPGQQQPF; REGION 1..15: note = epitope)”, “confirmed to bind”; with “SEQ ID NO: 1753: common 15-residue epitope sequence of polypeptide (E28) (VKEVSSYLKKVGYNP; REGION 1..15: note = epitope)”, “confirmed to bind”.
With “SEQ ID NO: 1142: common 15-residue epitope sequence of polypeptide (E16) (TEPSQLSIDQNAQGL; REGION 1..15: note = epitope)”, the “binding” value in experiment [2] is reported as “confirmed to bind”.
For the substance “SEQ ID NO: 1566: common 15-residue epitope sequence of polypeptide (E24) (PQQPQQPFPQTQQPQ; REGION 1..15: note = epitope)”, the “binding” value in experiment [2] was “confirmed to bind”.
